Data from US12410152B2, “Oxazole and thioazole-type cullin ring ubiquitin ligase compounds and uses thereof” (Proxygen GmbH, priority 2019, dated 2025).

Key:
DCAF15 = biological target: T1, DCAF15 (Homo sapiens, UniProt Q66K64); test: DCAF15 stabilization, live-cell HiBit/LgBit bioluminescence screen; type: cell-based; conditions: 10 μM, 293T cells expressing HiBit-DCAF15
T1 construct: expressed in transfected cells; host or cells: 293T cells, DCAF15 knocked out, additionally transduced with LgBit
Excerpt: Subsequently, in this context, the E3 ligase substrate receptor (SR) stabilization approach was employed in order to identify novel chemical matter that can bind and chemically re-program the substrate receptor DCAF15. To be able to screen a collection of around 8000 small-molecules, a cellular system was developed that enabled monitoring of DCAF15 levels in live cells in multi-well format. To that end, DCAF15 was first knocked out in 293T cells via CRISPR/Cas9 technology. Then, DCAF15 was stably expressed as a HiBit® fusion protein in these cells. After further transducing these cells with LgBit, this allowed live-cell tracing of DCAF15 levels in 384 well format by measuring bioluminescence (FIG. 13).
In brief, cells were seeded at a concentration of 250′000 cells/ml in DMEM+10% FCS+25 mM Hepes. The luciferase substrate Endurazine was added at concentrations recommended by the manufacturer. Small-molecules were added at a concentration of 10 μM, and their effect on DCAF15 levels was assayed by continuous bioluminescent imaging (measurements were taken every 120 minutes). In total, 8000 compounds were tested.
The known DCAF15 molecular glue indisulam was used as a positive control. In brief, indisulam is known to act as a DCAF15-dependent molecular glue that binds DCAF15 and induced proximity between DCAF15 and RBM39, leading to the degradation of the latter. […]

UBE2M mutant KBM7 cells = test: cells; type: cell-based; conditions: KBM7 UBE2M mutant vs WT
Procedure: KBM7 cells with the specified genetic backgrounds were grown in IMDM supplemented with 10% FBS and 1% penicillin/streptomycin (pen/strep). AsPC1, HCT116, NCI-H446 and 293T cells were grown in DMEM 10% FBS and 1% pen/strep. MV4; 11, Jurkat and Be (2) C cells were grown in RPMI 10% FBS 1% pen/strep. KBM7, AsPC1 and HCT116 cells expressing Cas9 were generated using the plasmid Lenti_Cas9_Blasti (Addgene #52962). The lentiviral plasmid lentiGuide-Puro (Addgene #52963) was used to express sgRNAs against the genes UBE2M (in KBM7-Cas9, AsPC1-Cas9 and HCT116-Cas9 cells), UBE2G1 (in KBM7-Cas9 cells) and […] (in KBM7-Cas9 cells). The lentiviral plasmid lentiGuide-Puro-IRES-mCherry (modified from Addgene #52963) was used to express sgRNAs against CUL4A (in KBM7-Cas9 cells). The lentiviral plasmid pLenti-PGK-Hygro-DEST-UBE2M was generated by Gateway cloning (empty destination vector Addgene #19066), and used to generate UBE2M^resc KBM7 cells. […]
Following this observation, it was rationalized that novel small molecule degraders can be identified in an unbiased manner, simply by searching for compounds that lose activity in the absence of UBE2M. 2000 small molecules, mostly of unknown function/target, were tested for their antiproliferative effects in human leukemia cells (KBM7). These cells were either transduced with a control sgRNA (KBM7WT), or with an sgRNA targeting UBE2M, leading to a hypomorph (deletion of six amino acids) with a functional impairment (UBE2Mmut).
Finally, a total of structurally similar analogs was tested to unravel structure-activity relationship of the identified molecules. To that end, their anti-cancer activity was assayed in WT cells, as well as KBM7 cells deficient in genes identified in the genome-wide CRISPR screens (UBE2M, CUL4B, UBE2G1). Moreover, the compounds were also tested in AsPC1 pancreatic cancer cells (WT or UBE2Mmut), MV4; 11 and Jurkat leukemia cells, Be (2) C neuroblastoma cells, and NCI-H446 lung cancer cells (Table 3 at the end of this document)
KBM7^WT, mutant KBM7 clones (UBE2M^mut, UBE2M^resc, UBE2G1^mut CUL4A^mut, CUL4B^mut), and 3-day doxycycline pretreated KBM7^iCas9_sgDDB1 cells were seeded at a cell density of 50,000 cells/mL in 96-well plates with DMSO or drug, in triplicates. Drugs used: IC020772.1/IC020772.1X, IC021313.2/IC021313.2X, T6938051/T6938051X or THZ531. Cells were treated for 3 days, after which cell viability was assessed according to manufacturer's protocol (CellTiter Glo, Promega G7570). Survival curves and EC50 values were calculated by best-fit analysis of the log 10 drug concentration to fold change of drug-treated cells over DMSO-treated cells. All survival assays included technical triplicates per sample, per experiment.

[1] = test system: KBM7 cells (DCAF15 knockout); test: Cell viability, KBM7 DCAF15 knockout vs WT (72 hour treatment); type: cell-based, human
Procedure: FIG. 18. (A) Cellular viability of KBM7 cells (WT or UBE2M mutant) after treatment with dCeMM.1. (72 hour treatment) (B) cellular viability of KBM7 cells (WT or DCAF15 knockout) after dose-ranging treatment with dCeMM.1 (72 hour treatment).
In another experiment, 2000 compounds were screened in a set up comparing their anti-proliferative effect in KBM7 cells modified in the UBE2M gene to wildtype KBM7 cells (FIG. 3). The PROTAC® ARV-771 was taken as positive control. Of note, among the identified hits was also dCeMM.1, which was similarly identified via the aforementioned DCAF15 restabilization assay.

RBM39 = biological target: T2, RBM39 (Homo sapiens, UniProt Q14498+Q66K64); test: RBM39 levels by Western blot, WT vs DCAF15-deficient cells; type: cell-based; conditions: KBM7 12 or 16 h (dCeMM-1); 293T 10 h (dCeMM-2)
T2 construct: endogenous in cells; host or cells: KBM7 (WT or DCAF15 knockout) and 293T (DCAF15-HiBit or knockout)
Procedure: The known DCAF15 molecular glue indisulam was used as a positive control. In brief, indisulam is known to act as a DCAF15-dependent molecular glue that binds DCAF15 and induced proximity between DCAF15 and RBM39, leading to the degradation of the latter. […] Given the structural similarity to indisulam, it was assayed if the two new test compounds would similarly lead to the degradation of RBM39 in a DCAF15-dependent manner. Towards that end, their effect on RBM39 levels in wildype cells as well as cells deficient for DCAF15 levels was tested. KBM7 (WT or knockout, FIG. 15) as well as 293T cells (DCAF15-HiBit overexpression vs knockout, see FIG. 16) were tested in various conditions of dCEMM.1 and/or dCEMM.2, comparing their effect to indisulam.
PBS-washed cell pellets were lysed in 50 mM Tris pH 7.9, 8M Urea and 1% CHAPS and incubated with shaking at 4° C. for at least 30 min. 20 μg of supernatants were run and transferred for detection. […]

CCNK and DDB1 [2] = biological target: T3, CCNK and DDB1 (Homo sapiens, UniProt O75909+Q16531); test: Photo-affinity probe (IC021313.2^PAP) pulldown in intact KBM7 cells; type: binding; conditions: UV crosslink, competed by THZ531
T3 construct: endogenous in cells; host or cells: KBM7 cells (lysate in A24, intact cells in A25)
Procedure: Regarding the second strategy, an alternative method for drug-target enrichment that is based on cellular treatment with IC021313.2^PAP, a functionalized analog of IC021313.2 containing a photoactive diazirine moiety and an alkyne handle was performed (FIG. 20 d). Following cellular treatment with IC021313.2^PAP, cells were UV crosslinked, lysed and the alkyne handle in IC021313.2^PAP was biotinylated for subsequent immobilization on streptavidin beads and identification of drug-interacting proteins via immunoblots. […] Also in this setup, covalently saturating the CDK12/13 binding site with THZ-531 competed with IC021313.2^PAP enrichment (FIG. 20 e, f). Collectively, both strategies indicate simultaneous engagement of the destabilized CCNK and the CRL4 adaptor protein DDB1 in a CDK12/13-dependent manner.
IC021313.2^NH2 was conjugated to a constant side chain consisting of a photosensitive diazirine group and an alkyne handle.
20 million KBM7^WT cells per condition were pre-treated with either DMSO or 100 μM THZ531 (competition condition) for 1h in the presence of 10 μM carfilzomib (Selleckchem, S2853) in serum-free IMDM medium (3 ml/20 million cells/10 cm dish). Then, cells were treated with 10 μM IC020772.1^PAP for 1h. […] Eluates were analyzed by WB. Quantification was performed with ImageJ.

CCNK and DDB1 [3] = biological target: T3, CCNK and DDB1; test: Drug affinity chromatography with IC021313.2^NH2-coupled beads in KBM7 lysates; type: binding; conditions: KBM7 whole cell lysates; competed by THZ531 100 μM
Excerpt: Regarding the first strategy, a variant of IC021313.2 associated with a free amine and named IC021313.2^NH2 allowed immobilizing IC021313.2^NH2 on sepharose beads, and purification of interacting proteins out of whole cell lysates (FIG. 20 a, b). […] Treating lysates with THZ531 and thus covalently blocking the active sites on CDK12/13 prevented DDB1 and CCNK enrichment via the IC021313.2^NH2 resin. This is in line with the fact that cellular co-treatment with THZ531 was able to abrogate drug-induced CCNK degradation (FIG. 19 d).
100 μL NHS-Activated Sepharose 4 Fast Flow (GE Life Sciences, 17090601) per condition were washed with 500 μL DMSO 3 times (3 min 800 rpm centrifugation at RT). Beads were resuspended in 50 μL DMSO and 2.5 μL IC021313.2^NH2 10 mM and 0.75 μL TEA (Sigma-Aldrich, T0886) were added. […]
200 million KBM7 cells were resuspended in 2 mL lysis buffer ([…] pH 7.5, 0.2% NP-40, 5% glycerol, 1.5 mM MgCl2, 100 mM NaCl, 1 mM EDTA) supplemented with protease inhibitors (Thermo Scientific, 78437) and benzonase (Merck, US170746-370746) and incubated on ice for 30 min. After centrifugation (full-speed, 4° C., 30 min) supernatant was transferred to a new tube and extracted protein measured with BCA (Fisher Scientific, 23225). […]

T3 sequence (O75909 whole entry): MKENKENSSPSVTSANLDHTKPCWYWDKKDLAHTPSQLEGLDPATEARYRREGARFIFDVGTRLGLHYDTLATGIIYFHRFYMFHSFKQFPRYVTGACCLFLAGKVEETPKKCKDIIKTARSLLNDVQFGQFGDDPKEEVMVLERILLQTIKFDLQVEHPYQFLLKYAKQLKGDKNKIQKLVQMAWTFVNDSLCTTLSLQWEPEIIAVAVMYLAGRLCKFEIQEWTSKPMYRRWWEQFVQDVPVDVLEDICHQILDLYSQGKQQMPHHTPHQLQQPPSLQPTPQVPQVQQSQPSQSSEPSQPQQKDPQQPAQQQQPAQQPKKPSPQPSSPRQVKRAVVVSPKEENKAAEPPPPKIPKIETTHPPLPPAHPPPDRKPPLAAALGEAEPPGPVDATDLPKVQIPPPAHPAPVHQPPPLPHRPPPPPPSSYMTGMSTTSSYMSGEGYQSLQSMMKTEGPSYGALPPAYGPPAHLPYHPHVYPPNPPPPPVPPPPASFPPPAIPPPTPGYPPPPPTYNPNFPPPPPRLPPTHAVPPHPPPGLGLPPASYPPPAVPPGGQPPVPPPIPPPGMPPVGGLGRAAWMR
T3 sequence (Q16531 2-1140 limits assumed): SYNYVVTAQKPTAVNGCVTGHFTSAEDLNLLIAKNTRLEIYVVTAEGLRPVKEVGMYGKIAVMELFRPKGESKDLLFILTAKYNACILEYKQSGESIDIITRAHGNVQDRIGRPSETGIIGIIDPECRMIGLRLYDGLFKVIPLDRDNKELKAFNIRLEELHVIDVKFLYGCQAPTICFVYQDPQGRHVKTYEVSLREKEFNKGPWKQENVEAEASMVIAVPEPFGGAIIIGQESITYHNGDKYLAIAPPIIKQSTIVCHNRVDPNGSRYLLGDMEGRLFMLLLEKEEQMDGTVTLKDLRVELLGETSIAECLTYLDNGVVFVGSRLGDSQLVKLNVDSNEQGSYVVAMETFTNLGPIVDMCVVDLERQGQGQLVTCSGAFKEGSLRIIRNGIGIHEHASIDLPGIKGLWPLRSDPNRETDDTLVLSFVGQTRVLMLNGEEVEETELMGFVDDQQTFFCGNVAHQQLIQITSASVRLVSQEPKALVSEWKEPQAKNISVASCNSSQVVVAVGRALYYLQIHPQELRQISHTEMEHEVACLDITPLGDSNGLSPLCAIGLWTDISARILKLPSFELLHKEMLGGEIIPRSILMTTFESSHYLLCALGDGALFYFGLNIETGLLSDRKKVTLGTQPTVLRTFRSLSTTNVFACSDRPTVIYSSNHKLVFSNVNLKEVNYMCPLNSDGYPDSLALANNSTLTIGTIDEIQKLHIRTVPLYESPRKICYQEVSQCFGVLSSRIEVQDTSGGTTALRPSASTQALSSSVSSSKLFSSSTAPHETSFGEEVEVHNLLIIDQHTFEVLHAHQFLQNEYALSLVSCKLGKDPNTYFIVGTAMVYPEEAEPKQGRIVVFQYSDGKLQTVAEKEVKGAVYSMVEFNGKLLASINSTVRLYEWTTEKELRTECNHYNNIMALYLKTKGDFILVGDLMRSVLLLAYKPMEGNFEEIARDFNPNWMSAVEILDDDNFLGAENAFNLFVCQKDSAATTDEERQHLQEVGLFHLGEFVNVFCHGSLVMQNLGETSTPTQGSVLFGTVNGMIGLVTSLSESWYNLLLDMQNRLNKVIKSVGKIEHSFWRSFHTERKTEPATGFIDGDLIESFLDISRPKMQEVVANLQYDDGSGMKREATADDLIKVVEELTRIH
T3 sequence (Q9NYV4 whole entry partner): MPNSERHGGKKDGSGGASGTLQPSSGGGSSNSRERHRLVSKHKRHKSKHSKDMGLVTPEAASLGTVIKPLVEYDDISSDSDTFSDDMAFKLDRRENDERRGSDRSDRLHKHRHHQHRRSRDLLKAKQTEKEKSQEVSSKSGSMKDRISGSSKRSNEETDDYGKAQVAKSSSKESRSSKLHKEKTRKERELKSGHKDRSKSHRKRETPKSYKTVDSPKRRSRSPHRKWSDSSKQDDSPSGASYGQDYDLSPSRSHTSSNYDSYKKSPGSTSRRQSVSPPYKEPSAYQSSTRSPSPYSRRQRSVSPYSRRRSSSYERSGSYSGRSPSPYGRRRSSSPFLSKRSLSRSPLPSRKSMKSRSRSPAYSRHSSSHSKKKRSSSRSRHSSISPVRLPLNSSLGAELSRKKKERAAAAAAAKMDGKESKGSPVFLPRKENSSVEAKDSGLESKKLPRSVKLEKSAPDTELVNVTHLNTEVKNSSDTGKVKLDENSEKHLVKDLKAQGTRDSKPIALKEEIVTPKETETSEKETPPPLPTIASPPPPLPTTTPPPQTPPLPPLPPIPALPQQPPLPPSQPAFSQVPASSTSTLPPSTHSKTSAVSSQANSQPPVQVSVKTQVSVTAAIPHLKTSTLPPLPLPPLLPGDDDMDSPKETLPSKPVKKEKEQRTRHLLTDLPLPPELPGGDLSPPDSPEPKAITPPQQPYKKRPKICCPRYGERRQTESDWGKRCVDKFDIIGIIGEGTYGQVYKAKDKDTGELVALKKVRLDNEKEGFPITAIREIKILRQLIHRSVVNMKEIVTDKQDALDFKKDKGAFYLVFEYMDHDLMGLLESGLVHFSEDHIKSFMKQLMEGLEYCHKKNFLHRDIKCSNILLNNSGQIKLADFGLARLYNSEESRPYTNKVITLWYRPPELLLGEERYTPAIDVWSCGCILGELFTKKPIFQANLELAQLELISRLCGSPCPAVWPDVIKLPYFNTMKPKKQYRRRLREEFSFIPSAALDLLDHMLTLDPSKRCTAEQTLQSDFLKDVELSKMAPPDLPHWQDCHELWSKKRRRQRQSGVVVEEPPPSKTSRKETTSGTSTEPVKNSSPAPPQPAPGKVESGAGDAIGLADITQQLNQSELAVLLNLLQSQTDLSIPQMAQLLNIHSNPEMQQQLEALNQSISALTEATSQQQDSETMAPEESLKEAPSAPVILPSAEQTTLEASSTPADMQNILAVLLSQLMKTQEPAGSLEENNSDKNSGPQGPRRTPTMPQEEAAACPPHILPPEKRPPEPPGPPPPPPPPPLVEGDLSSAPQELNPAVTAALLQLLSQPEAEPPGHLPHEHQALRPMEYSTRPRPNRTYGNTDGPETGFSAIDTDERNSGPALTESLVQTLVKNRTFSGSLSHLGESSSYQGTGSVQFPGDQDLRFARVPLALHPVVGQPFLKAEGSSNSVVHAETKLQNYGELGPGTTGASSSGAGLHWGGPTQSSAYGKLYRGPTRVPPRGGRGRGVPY
T2 sequence (Q14498 2-530 limits assumed): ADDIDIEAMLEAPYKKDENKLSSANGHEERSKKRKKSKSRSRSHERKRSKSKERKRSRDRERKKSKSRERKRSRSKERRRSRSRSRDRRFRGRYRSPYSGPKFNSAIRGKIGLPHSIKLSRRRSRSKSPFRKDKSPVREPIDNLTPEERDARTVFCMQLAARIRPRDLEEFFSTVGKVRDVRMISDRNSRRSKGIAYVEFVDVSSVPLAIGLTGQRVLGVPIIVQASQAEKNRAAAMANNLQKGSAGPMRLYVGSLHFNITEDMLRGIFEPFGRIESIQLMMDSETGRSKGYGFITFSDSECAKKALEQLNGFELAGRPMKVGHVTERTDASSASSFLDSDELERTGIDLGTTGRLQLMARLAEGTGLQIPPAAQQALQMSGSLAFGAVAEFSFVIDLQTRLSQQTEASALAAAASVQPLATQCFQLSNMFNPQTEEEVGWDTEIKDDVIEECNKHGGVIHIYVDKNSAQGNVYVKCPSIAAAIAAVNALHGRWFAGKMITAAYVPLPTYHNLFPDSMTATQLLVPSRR
T2 sequence (Q66K64 whole entry): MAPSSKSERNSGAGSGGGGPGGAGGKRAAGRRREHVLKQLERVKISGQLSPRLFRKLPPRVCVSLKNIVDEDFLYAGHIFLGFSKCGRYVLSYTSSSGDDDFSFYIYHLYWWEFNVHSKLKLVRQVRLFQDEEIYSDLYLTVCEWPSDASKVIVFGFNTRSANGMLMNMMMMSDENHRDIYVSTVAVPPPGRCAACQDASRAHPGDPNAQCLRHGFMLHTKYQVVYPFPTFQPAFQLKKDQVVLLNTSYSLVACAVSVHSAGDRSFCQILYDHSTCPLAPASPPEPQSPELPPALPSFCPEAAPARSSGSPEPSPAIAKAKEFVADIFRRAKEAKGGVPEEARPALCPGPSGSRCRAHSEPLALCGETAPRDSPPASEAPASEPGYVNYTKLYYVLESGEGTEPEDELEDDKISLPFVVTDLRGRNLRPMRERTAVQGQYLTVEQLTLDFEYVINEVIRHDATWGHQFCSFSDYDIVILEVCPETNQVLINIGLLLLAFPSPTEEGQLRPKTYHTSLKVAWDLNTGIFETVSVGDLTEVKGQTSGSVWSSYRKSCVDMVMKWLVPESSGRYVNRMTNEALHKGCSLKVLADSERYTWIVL
T2 sequence (Q16531 2-1140 partner limits assumed): as the sequence (Q16531 2-1140 limits assumed) above
T1 sequence (Q66K64 whole entry): as the sequence (Q66K64 whole entry) above

## Cc1ccc(S(=O)(=O)N/N=C/c2cc(Br)ccc2O)cc1 [dCeMM.1]
DCAF15
  DCAF15 stabilization (relative luciferase signal over time): significant DCAF15 stabilization
UBE2M mutant KBM7 cells
  anti-proliferative effect upon mutation of UBE2M: loses anti-proliferative activity
[1]
  sensitivity upon inactivation of DCAF15: pronounced resistance
RBM39
  RBM39 destabilization (Western blot), DCAF15-dependent: significant destabilization of RBM39 levels

## C#CCCC1(CCC(=O)Nc2ccc3[nH]c(SCC(=O)Nc4ccc(Cl)cn4)nc3c2)N=N1 [IC021313.2^PAP]
CCNK and DDB1 [2]
  proteins enriched in photo-affinity pulldown (immunoblot): DDB1 and CCNK were enriched in the eluates

## Nc1ccc2[nH]c(SCC(=O)Nc3ccc(Cl)cn3)nc2c1 [IC021313.2^NH2]
CCNK and DDB1 [3]
  interacting proteins in bead pulldown (immunoblot): both CCNK and DDB1 as interacting proteins
